Reference: patent US20100311674A1, “PHARMACEUTICAL COMPOSITIONS WITH A MECHANISM OF MULTI-TARGET RECEPTOR RETROACTION FOR TREATING DEPRESSION” (Yu-Fen Chi, priority 2007, published 2010)

What was measured:
[1] = test system: ICR mice; assay: Mouse tail-hanging experiment (Experiment 1); format: in vivo
Protocol: 1.1 Experimental animals: ICR mice, male, 22.0±2 g of body weight, secondary, are provided by the Experimental Animal Science Department of Capital Medical University, Beijing. 1.2 Experiment pharmaceuticals: The pharmaceutical of Embodiment 1 is provided by Beijing Wonner Biotech. […] High dose of Embodiment 1 (80 mg/kg/d); 2. middle dose of Embodiment 1 (40 mg/kg/d); and 3. low dose of Embodiment 1 (20 mg/kg/d). 1.5.1 Group division and administration of drug: The mice are grouped randomly, and 10 mice are in each group. 1. High dose of Embodiment 1 (80 mg/kg, per oral (P.O.), administered for 7 days); 2. middle dose of Embodiment 1 (40 mg/kg, P.O., administered for 7 days); 3. low dose of Embodiment 1 (20 mg/kg, P.O., administered for 7 days); 4. […] After 1 hour of the last administration of drug, the mouse tail-hanging experiment is proceeded. 1.5.2 Experimental method: The mouse's tail (1 cm to the tail end) is taped on the wood strip higher than the platform for 5 cm and hung up for 6 minutes. The time of non-movement of the mouse for the last 5 minutes is recorded. 1.5.3 Statistic calculation: The experimental data are represented as X±SD, and the experimental result is calculated as analysis of variance (ANOVA) by SPSS 11.5 statistic software.

[2] = test system: ICR mice; assay: Mouse tail-hanging experiment (Experiment 3); format: in vivo
Protocol: 3.1 Experimental animals: ICR mice, male, 22.0±2 g of body weight, secondary, are provided by the Experimental Animal Science Department of Capital Medical University, Beijing. 3.2 Experiment pharmaceuticals: The pharmaceutical of Embodiment 2 is provided by Beijing Wormer Biotech. […] High dose of Embodiment 2 (80 mg/kg/d); 2. middle dose of Embodiment 2 (40 mg/kg/d); and 3. low dose of Embodiment 2 (20 mg/kg/d). 3.5.1 Group division and administration of drug: The mice are grouped randomly, and 10 mice are in each group. 1. High dose of Embodiment 2 (80 mg/kg, P.O., administered for 7 days); 2. middle dose of Embodiment 2 (40 mg/kg, P.O., administered for 7 days); 3. low dose of Embodiment 2 (20 mg/kg, P.O., administered for 7 days); 4. […] After 1 hour of the last administration of drug, the mouse tail-hanging experiment is proceeded. 3.5.2 Experimental method: The mouse's tail (1 cm to the tail end) is taped on the wood strip higher than the platform for 5 cm and hung up for 6 minutes. The time of non-movement of the mouse for the last 5 minutes is recorded. 3.5.3 Statistic calculation: The experimental data are represented as X±SD, and the experimental result is calculated as ANOVA by SPSS 11.5 statistic software.

[3] = Body weight measurement, unpredictable long-term stimulus model (Experiment 8); format: in vivo, rat; conditions: 2 mg/kg/d into the stomach, 24 days
Protocol: (§1) Unpredictable long-term stimulus model: Health Wistar male rats, secondary, 240˜270 g of body weight, are purchased from Beijing Vital River Experimental Animal Technology Ltd. Co. (The quality certificate number: SOCK (JING) 2002-2003).
(§2) The above pharmaceuticals are prepared with 0.5% of sodium carboxymethylcellulose (CMC-Na) for feeding into the stomach. Benzylpenicillin sodium for injection is the product of North China Pharmaceutical Huasheng Co. Ltd. (Lot: S0511204), and norepinephrine (NE) and 5-hydrotryptamine (5-HT) standards are the products of Sigma Co. Other reagents are all marketed.
8.4.1 Group division and administration of drug: The rats are grouped randomly into 6 groups. 1. False therapy group; 2. model group (control); 3. high dose of Embodiment 4 (60 mg/kg/d); 4. middle dose of Embodiment 4 (30 mg/kg/d); 5. low dose of Embodiment 4 (15 mg/kg/d); and 6. […] The test drugs and the positive control drug are prepared with 0.5% of CMC-Na for feeding into the stomach once every day.
Unpredictable long-term stimulus model: The rats in the control group eat and drink normally, and there is no stimulus performed. […]
(§3) 8.6 Statistic calculation: The experimental data are represented as […], and the experimental result is calculated as ANOVA by SPSS 11.5 statistic software.

[4] = test system: unpredictable long-term stimulus model; assay: Open field activity experiment, unpredictable long-term stimulus model (Experiment 8); format: in vivo, rat; conditions: 2 mg/kg/d into the stomach, 24 days; within 3 minutes
Source text: 7.5.1 Open field activity experiment: The open field activity box (1 m×1 m×0.4 m) is constructed by the light blue plywood and the aluminum alloy frame. The box bottom is separated into 25 grids (20 cm×20 cm for each grid), the circumference is the peripheral grids (16 grids), and others are the central grids (9 grids). The rat is placed in the center of the central grids, and the rat's cross-grid number (the number of crossing into the neighboring gird more than 3 claws) and rat's standing number (two forelimbs leaving the ground for more than 1 cm) are calculated/observed within 3 minutes.
as §1
as §2, with “marketed. […]” for “marketed.”
as §3

[5] = 3 mg/kg P.O. 7 days, 1 h after last dose, last 5 of 6 min

Compound: Fc1ccc([C@@H]2CCNC[C@H]2COc2ccc3c(c2)OCO3)cc1 [Paroxetine]
- Time of non-movement [1, 5]: 75.33 ± 22.91 s
- Effect on time of non-movement after the mouse's tail is hung up (in words) ([1]; high and middle doses of Embodiment 1, Paroxetine, significantly different from control): decrease the time of non-movement
- Time of non-movement [2, 5]: 75.33 ± 22.91 s
- Effect on time of non-movement after the mouse's tail is hung up (in words) ([2]; middle dose of Embodiment 2, Paroxetine, significantly different from control): decrease the time of non-movement
- Increasing body weight [3]: 96.85 ± 9.30 g
- Horizontal movement (cross-grid number) [4]: 61.85 ± 21.68
- Vertical movement (standing number) [4]: 14.69 ± 4.2
